In brackets after ≈: the same amount, converted by molar mass.
Key:
[1] = target: T1, Indoleamine 2,3-dioxygenase 1 (Homo sapiens, UniProt P14902); test: Inhibition of IDO1 (unknown origin)
[2] = target: T1, Indoleamine 2,3-dioxygenase 1; test: Inhibition of IDO1 in human HeLa cells; type: cell-based
[3] = Solubility of compound in water; type: physicochemical
[4] = target: T2, Tryptophan 2,3-dioxygenase (Homo sapiens, UniProt P48775); test: Inhibition of recombinant human TDO expressed in Escherichia coli BL21 using L-Trp as substrate incubated for 30 mins by enzymatic assay
Target sequence in this assay (P48775 whole entry): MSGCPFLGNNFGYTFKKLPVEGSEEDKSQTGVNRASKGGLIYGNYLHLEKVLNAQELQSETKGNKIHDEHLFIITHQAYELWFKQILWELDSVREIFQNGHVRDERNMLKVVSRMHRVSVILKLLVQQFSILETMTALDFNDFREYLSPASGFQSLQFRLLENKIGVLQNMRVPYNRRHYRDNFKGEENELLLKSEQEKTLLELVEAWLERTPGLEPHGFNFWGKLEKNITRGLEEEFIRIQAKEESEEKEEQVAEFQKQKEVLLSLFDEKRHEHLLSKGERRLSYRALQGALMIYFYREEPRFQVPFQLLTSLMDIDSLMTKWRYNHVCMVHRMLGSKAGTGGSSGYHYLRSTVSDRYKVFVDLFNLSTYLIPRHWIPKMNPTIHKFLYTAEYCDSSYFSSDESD

[5] = target: T2, Tryptophan 2,3-dioxygenase; test: Potency index, ratio of IC50 of LM10 to IC50 of compound for inhibition of TDO (unknown origin)
Target sequence in this assay (P48775 whole entry, looked up): as the sequence (P48775 whole entry) above

[6] = target: T2, Tryptophan 2,3-dioxygenase; test: Potency index, ratio of IC50 of 8-fluorotryptanthrin to IC50 of compound for inhibition of TDO (unknown origin)
Target sequence in this assay (P48775 whole entry, looked up): as the sequence (P48775 whole entry) above

T1 sequence (P14902 whole entry): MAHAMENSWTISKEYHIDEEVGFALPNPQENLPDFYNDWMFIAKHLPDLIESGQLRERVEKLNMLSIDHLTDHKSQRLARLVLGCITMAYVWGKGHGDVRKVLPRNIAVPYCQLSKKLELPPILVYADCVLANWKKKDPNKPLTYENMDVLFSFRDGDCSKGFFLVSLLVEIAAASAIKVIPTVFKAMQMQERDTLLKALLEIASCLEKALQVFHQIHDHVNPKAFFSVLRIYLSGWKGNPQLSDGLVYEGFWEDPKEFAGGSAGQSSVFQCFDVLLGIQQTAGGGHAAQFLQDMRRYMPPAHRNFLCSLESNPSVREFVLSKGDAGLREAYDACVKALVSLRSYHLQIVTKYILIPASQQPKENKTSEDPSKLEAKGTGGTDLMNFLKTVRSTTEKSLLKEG

Compound	IC50 [1]	IC50 [2]	solubility [3]	IC50 [4]	Ratio IC50 [5]	Ratio IC50 [6]
O=C1c2cc(F)ccc2-n2c1nc1ccc(CN3CCCC3C(=O)O)cc1c2=O (stereo not drawn)	550 nM	3760 nM	15.4 µg/mL (≈ 39.1 µM)	180 nM	–	–
O=C1c2cc(F)ccc2-n2c1nc1ccc(CN3CCCC(C(=O)O)C3)cc1c2=O (stereo not drawn)	570 nM	1840 nM	14.3 µg/mL (≈ 35.1 µM)	420 nM	–	–
O=C1c2cc(F)ccc2-n2c1nc1ccc(B(O)O)cc1c2=O	1790 nM	230 nM	0.69 µg/mL (≈ 2.23 µM)	1210 nM	–	–
COC(=O)C1CCN(Cc2ccc3nc4n(c(=O)c3c2)-c2ccc(F)cc2C4=O)CC1	1200 nM	150 nM	1.05 µg/mL (≈ 2.5 µM)	990 nM	–	–
O=C1c2cc(F)ccc2-n2c1nc1ccc(Cn3ccnn3)cc1c2=O	780 nM	80 nM	1.28 µg/mL (≈ 3.69 µM)	1130 nM	–	–
CC1(C)OB(c2ccc3nc4n(c(=O)c3c2)-c2ccc(F)cc2C4=O)OC1(C)C	13100 nM	750 nM	0.625 µg/mL (≈ 1.59 µM)	6020 nM	–	–
O=Cc1ccc2nc3n(c(=O)c2c1)-c1ccc(F)cc1C3=O	460 nM	160 nM	0.862 µg/mL (≈ 2.93 µM)	60 nM	193	16
O=C1c2cc(F)ccc2-n2c1nc1ccccc1c2=O	–	–	0.741 µg/mL (≈ 2.78 µM)	–	–	–
COC(=O)C1CCCN1Cc1ccc2nc3n(c(=O)c2c1)-c1ccc(F)cc1C3=O (stereo not drawn)	460 nM	700 nM	0.893 µg/mL (≈ 2.19 µM)	300 nM	–	–
O=C1c2cc(F)ccc2-n2c1nc1ccc(CN3CCC(C(=O)O)CC3)cc1c2=O	480 nM	3100 nM	16.7 µg/mL (≈ 40.9 µM)	450 nM	–	–
COC(=O)C1CCCN(Cc2ccc3nc4n(c(=O)c3c2)-c2ccc(F)cc2C4=O)C1 (stereo not drawn)	1430 nM	370 nM	1.09 µg/mL (≈ 2.58 µM)	2870 nM	–	–
CCOC(=O)/C=C/c1ccc2nc3n(c(=O)c2c1)-c1ccc(F)cc1C3=O	190 nM	20 nM	0.735 µg/mL (≈ 2.02 µM)	370 nM	–	–
O=C(O)/C=C/c1ccc2nc3n(c(=O)c2c1)-c1ccc(F)cc1C3=O	120 nM	60 nM	1.12 µg/mL (≈ 3.34 µM)	30 nM	386	32

Reference: ChEMBL document CHEMBL4619726, “Synthesis of novel tryptanthrin derivatives as dual inhibitors of indoleamine 2,3-dioxygenase 1 and tryptophan 2,3-dioxygenase” (Bioorg Med Chem Lett, 2020)
